# Source: patent US20180344726A1, “ABUSE RESISTANT TRANSDERMAL DELIVERY DEVICES AND COMPOSITIONS COMPRISING AN OPIOID AGONIST AND A NON-TRANSDERMALLY DELIVERED N-OXIDE DERIVATIVE OF AN OPIOID ANTAGONIST FOR THE TREATMENT OF PAIN” (priority 2015, published 2018)
# Like-named read-outs stand apart in the source and are kept apart here.
# Tests used:
# Type in all cases: physicochemical
# [1] = Log P by potentiometric (pH-metric) octanol/water titration; conditions: Neutral species, 25.0 ° C., 0.15M KCl, read-out: LogP
# Protocol: (§1) pKa analysis was performed using a pH-metric method. […] No precipitation or degradation was observed and two pKas were determined from the potentiometric data. Log P was determined using the potentiometric (pH-metric method). The sample was titrated in various ratios of octanol/water in two titrations covering the pH range 2.0-12.0 at concentrations of 1.9-1.1 mM. The shift of the aqueous pKas in the presence of octanol was used to determine the log P of the neutral species.
# [2] = Concentration of saturated antagonist solutions in phosphate buffer pH 5.0; conditions: phosphate buffer pH 5.0, stirred overnight, filtered
# Protocol: The determination of in vitro skin permeation was performed with saturated solutions of the respective antagonist species. Therefore an excess of the antagonist was weighed in phosphate buffer of pH 5.0 and stirred overnight. pH was monitored and, if necessary, adjusted. The cells were incubated at 32° C. Solutions were filtrated through a syringe filter (1 μm PTFE) prior to application into the diffusion cells. Concentrations of the solutions were determined.
# The determination of naloxone and naloxone N-oxide in the acceptor medium of the in vitro skin permeations samples (receptor phase) was done by HPLC with UV-detection.
# [3] = pKa analysis by pH-metric triple titration; conditions: aqueous solution, […] C., […] KCl, read-out: pKa
# Protocol: as §1
structure (smiles),measurement,setting,value
"C=CCN1CC[C@]23c4c5ccc(O)c4O[C@H]2C(=O)CC[C@@]3(O)[C@H]1C5 [Naloxone, (4R,4aS,7aR,12bS)-4a,9-dihydroxy-3-prop-2-enyl-2,4,5,6,7a,13-hexahydro-1H-4,12-methanobenzofuro[3,2-e]isoquinoline-7-one, reference compound]",logP,[1],1.97
same,Concentration saturated solution c,[2],4460 µg/mL
same,pKa,[3]; Type Acid,9.15 ± 0.01
same,pKa,[3]; Type Base,8.07 ± 0.01
